One data set can be described thus: Mouse 5-day tolerability. The class given is in vivo. The conditions noted are these: healthy mice. Here is the method: Compounds were administered to groups (n = 3) of female BALB/c mice via oral gavage in a 5-day exploratory repeat-dose study at doses of 25, 50 and 100 mg/kg/day, employing a solution/suspension vehicle comprising 10% ethanol, 40% PEG400 and 0.4% Tween80 in saline buffer (pH adjusted to 9). Repeat-dose toxicity was evaluated based on mortality, clinical observations, body weight and macroscopic organ pathologies.

Data set [1] concerns L. infantum (MHOM/BR/2005/NLC) strain expressing luciferase. The class given is in vivo, Leishmania infantum. The conditions noted are these: 25 mg/kg/day oral. As for the experimental part:
Groups of female BALB/c mice (n = 5) were infected with 10^8 stationary phase promastigotes of L. infantum chagasi-LUC in a final volume of 100 μL by the intraperitoneal route. At day 14 post-infection, groups were orally treated for 5 days with either drug vehicle only (10% ethanol, 40% PEG400 and 0.4% Tween80 in saline buffer—pH adjusted to 9), miltefosine (40 mg/kg QD) or with compounds 29 and 39 (25 mg/kg QD). Light emission in the ventral abdominal cavity of infected animals was recorded by bioimaging (IVIS Spectrum, Caliper Life Sciences) on 14, 19- and 24-days post-infection. Before imaging, mice received 75 mg/kg VivoGlo™ Luciferin (Promega Corporation) (i.p.) and were anesthetized in a 2% isoflurane atmosphere (Cristália). Animals were then transferred to the imaging chamber and kept in a 2% isoflurane atmosphere. Emitted photons were collected using the high resolution (medium binning) mode. Total photon emission from a defined region of interest (ROI) corresponding to the whole abdominal area was registered. The same ROI was applied to all animals in any given group. Images were acquired 15 min after luciferin injection. Total photon emission from each mouse was quantified with Living Image software version 4.3.1 (Caliper Life Sciences), and results were expressed as the number of photons/s/ROI subtracted from the corresponding ROI in uninfected animals. The detected signal was presented as a pseudocolor image representing light intensity (red = most intense and blue = least intense) and superimposed on the gray scale reference image.

Data set [2] has as its system L. braziliensis MHOM/BR/94/H3227. The data set is described as follows: VL/CL panel, intracellular amastigotes. It is filed as cell-based. The conditions noted are these: Leishmania braziliensis; average; read-out: IC-50 L. braziliensis MHOM/BR/94/H3227. Here is the method:
(§1) For the antileishmania in vitro assays, 3×10^4 PMM/well were seeded in 96-well plates. After 24h, 5×10^5 amastigotes/well were added and incubated for 2h at 37°C. Next, the compounds in 4-fold serial dilutions were added and the plates were further incubated for 5 days (37°C, 5% CO2). Parasite burdens were assessed using an inverted microscope after Giemsa staining. The results were expressed as percent reduction in parasite burdens compared to negative control wells (100% growth) and IC50 values were determined. Values represent the geometric mean of at least two independent experiments. Miltefosine was used as the positive control in all plates.

For data set [3], the system named is L. donovani MHOM/ NP/2003/ BPK282/0-cl4. The data set is described as follows: VL/CL panel, intracellular amastigotes. The class given is cell-based. Particulars: Leishmania donovani; average; read-out: IC-50 L. donovani MHOM/ NP/2003/ BPK282/0-cl4. As for the experimental part:
as §1

The test system of data set [4] is L. donovani MHOM/ET/2007/LLM-1600. Put plainly: VL/CL panel, intracellular amastigotes. The class given is cell-based. The conditions noted are these: Leishmania donovani; average; read-out: IC-50 L. donovani MHOM/ET/2007/LLM-1600. Here is the method: as §1
Data set [5] has as its system L. donovani MHOM/NP/03/BPK275/0-cl18. The data set is described as follows: VL/CL panel, intracellular amastigotes. It is filed as cell-based. Particulars: Leishmania donovani; average; read-out: IC-50 L. donovani MHOM/NP/03/BPK275/0-cl18. As for the experimental part:
as §1

The test system of data set [6] is L. guyanensis MHOM/PE/02/PER 054/0. The data set is described as follows: VL/CL panel, intracellular amastigotes. It is filed as cell-based. Particulars: Leishmania guyanensis; average; read-out: IC-50 L. guyanensis MHOM/PE/02/PER 054/0. As for the experimental part: as §1
Data set [7] relates to L. infantum LEM3323-cl4 MIL. Put plainly: VL/CL panel, intracellular amastigotes. The class given is cell-based. Particulars: Leishmania infantum, read-out: IC-50 L. infantum LEM3323-cl4 MIL. Here is the method: as §1
The test system of data set [8] is L. infantum LEM3323-cl4 PMM. The data set is described as follows: VL/CL panel, intracellular amastigotes. It is filed as cell-based. Particulars: Leishmania infantum, read-out: IC-50 L. infantum LEM3323-cl4 PMM. Here is the method: as §1
For data set [9], the system named is L. infantum MHOM/BR/2007/WC (L3015). Put plainly: VL/CL panel, intracellular amastigotes. The conditions noted are these: Leishmania infantum; average; read-out: IC-50 L. infantum MHOM/BR/2007/WC (L3015). The class given is cell-based. Here is the method:
as §1

Data set [10] concerns L. infantum MHOM/ES/2016/LLM-2346. Put plainly: VL/CL panel, intracellular amastigotes. The class given is cell-based. The conditions noted are these: Leishmania infantum; average; read-out: IC-50 L. infantum MHOM/ES/2016/LLM-2346. Here is the method: as §1
The subject of data set [11] is L. infantum MHOM/FR/96/LEM3323-cl4. Put plainly: VL/CL panel, intracellular amastigotes. It is filed as cell-based. The conditions noted are these: Leishmania infantum; average; read-out: IC-50 L. infantum MHOM/FR/96/LEM3323-cl4. Here is the method:
as §1

For data set [12], the system named is L. major MHOM/IL/81/Friedlin. The data set is described as follows: VL/CL panel, intracellular amastigotes. Particulars: Leishmania major; average; read-out: IC-50 L. major MHOM/IL/81/Friedlin. The class given is cell-based. As for the experimental part:
as §1

Data set [13] concerns L. major MHOM/SA/85/JISH118. The data set is described as follows: VL/CL panel, intracellular amastigotes. It is filed as cell-based. Particulars: Leishmania major; average; read-out: IC-50 L. major MHOM/SA/85/JISH118. As for the experimental part:
as §1

Data set [14] has as its system L. panamensis MHOM/PA/71/LS94. The data set is described as follows: VL/CL panel, intracellular amastigotes. The conditions noted are these: Leishmania panamensis; average; read-out: IC-50 L. panamensis MHOM/PA/71/LS94. It is filed as cell-based. As for the experimental part:
as §1

In data set [15] the test system is L. tropica MHOM/AF/2015/HTD7. Put plainly: VL/CL panel, intracellular amastigotes. The class given is cell-based. The conditions noted are these: Leishmania tropica; average; read-out: IC-50 L. tropica MHOM/AF/2015/HTD7. Here is the method: as §1
Data set [16] relates to panel of VL and CL strains (intracellular amastigotes). The data set is described as follows: Panel of VL and CL strains. The class given is cell-based, Leishmania spp. Particulars: Leishmania, L. major JISH118 and L. braziliensis H3227 excepted, read-out: IC50 values across panel of VL and CL strains. As for the experimental part:
The only two clear exceptions were L. major (MHOM/SA/85/JISH118) and L. braziliensis (MHOM/BR/94/H3227), where a potency drop was evident (see S1 Data for the complete dataset).
as §1

Data set [17] is described as follows: Mouse single-dose pharmacokinetics. It is filed as in vivo. The conditions noted are these: female, BALB/c, plasma, single oral dose 10 mg/kg.

For the compound `Cn1nccc1C(=O)Nc1nc2ccc(C#N)cc2n1CC(C)(C)C` [Compound 29, O=C(Nc1n(CC(C)(C)C)c(c2n1)cc(C#N)cc2)c3n(C)ncc3], the 5-day tolerability entry in “Mouse 5-day tolerability” (oral 25 mg/kg/day) was “well tolerated”; in “Mouse 5-day tolerability” (oral 50 mg/kg/day) it was “clinical signs from day 3 of treatment”; in “Mouse 5-day tolerability” (oral top dose (100 mg/kg/day)), “body weight reduction and severe toxic signs, including mortality”. Also, the “toxicity in infected mice” value in data set [1] was “one animal was euthanized due to severe clinical signs of distress”. The “parasite load (bioluminescence)” value in data set [1] (5 days, end of treatment or washout) is “no decrease in parasite load”. Further, the IC50 in data set [2] is 24.8 µM; in data set [3], 0.3 µM; in [4] it was 4.04 µM; in data set [5], 1.02 µM; in [6], 0.55 µM; in data set [7] it was 2.16 µM. Moreover, the IC50 was found to be 1.62 µM in [8]; 2.68 µM in [9]; 3.17 µM in data set [10]; 2.81 µM in data set [11]; 1.71 µM in [12]; 8.64 µM in data set [13]. In addition, the IC50 in data set [14] is 0.63 µM; in data set [15], 2.85 µM; in data set [16], 0.11 to 5.9 µM. In data set [17], this compound returned an AUC(0-t) of 8160 ng·h/mL. For the same compound, in data set [17], the Cmax is 1000 ng/mL. Further, the bioavailability in data set [17] was determined as 72%. Besides, the half-life in data set [17] was 7.9 h.

`Cn1nc(C(F)(F)F)cc1C(=O)Nc1nc2ccc(C#N)cc2n1CC(F)(F)F` [Compound 39, O=C(c1cc(C(F)(F)F)nn1C)Nc2nc(ccc(C#N)c3)c3n2CC(F)(F)F]: the 5-day tolerability entry in the data set “Mouse 5-day tolerability” (oral 25 mg/kg/day) was “well tolerated”; in “Mouse 5-day tolerability” (oral 50 mg/kg/day), “clinical signs from day 3 of treatment”; in the data set “Mouse 5-day tolerability” (oral top dose (100 mg/kg/day)), “body weight reduction and severe toxic signs, including mortality”. The “toxicity in infected mice” value in data set [1] was “severe toxic effects”. Besides, the IC50 in [3] is 0.1 µM; in data set [4] it was 1.61 µM; in [5], 0.11 µM; in data set [6] it was 1.08 µM; in data set [7], 4.16 µM; in data set [8], 3.21 µM. In addition, the IC50 in data set [9] was determined as 3.64 µM; in [10], 4.65 µM; in data set [11], 3.01 µM; in data set [12], 3.04 µM; in data set [13], 17 µM; in data set [14], 1.22 µM. The values for the IC50 in data set [15] and in data set [16] were 5.9 µM and 0.11 to 5.9 µM, respectively.

As a reminder, the AUC(0-t) is exposure summed from dosing to a finite time, without extrapolation to infinity. Low values mean low exposure, high ones high exposure. In general, Cmax refers to the highest concentration seen after dosing. For orientation: bioavailability means dose-corrected exposure relative to a reference, in per cent. High values mean good availability, low ones poor availability. The half-life is the time needed for the level to fall by half in the phase considered. Lower therefore signals fast loss.

Source of the values: paper PMC7932521, “2-aminobenzimidazoles for leishmaniasis: From initial hit discovery to in vivo profiling” (PLoS Neglected Tropical Diseases, 2021).
